# Laboratory results reported in article PMC11240924, “Isolation, Identification, and Biological Activities of a New Chlorin e6 Derivative” (International Journal of Molecular Sciences, 2024).
# Assay: Singlet oxygen photogeneration (DPBF quenching)
# Settings: 1 µM, DMSO, DPBF 50 μM, 660 nm laser 0.5 J/cm^2
# Experimental: Singlet oxygen photoregeneration was carried out using 1, 3-diphenylisobenzofuran (DPBF) in DMSO. DPBF is a selective ^1O2 acceptor that reacts with ^1O2. The sample solutions of DPBF (50 μM) which contained DPBF only (50 μM, as a control), MB (1, 5, and 10 μM), chlorin e6 (1, 5, and 10 μM), and rhodin g7 7^1-ethyl ester (1, 5, and 10 μM) were prepared under dark conditions. All of the samples were placed in a 96-well plate, which was covered with aluminum foil. The samples were then irradiated (660 nm, 50 mW, 0.5 J/cm^2) for 1 min and 40 s, and after irradiation, the visible spectra of the sample solutions were measured spectrophotometrically. The normalized absorbance of DPBF at 418 nm was measured in these samples. The ^1O2 photo-generation activities of MB, chlorin e6, and rhodin g7 7^1-ethyl ester can be compared with the different absorbance decay of each sample relative to the DPBF control sample.
compound,measurement,value
"CN(C)c1ccc2nc3ccc(=[N+](C)C)cc-3sc2c1 [MB, Methylene blue, reference compound]",^1O2 generation (DPBF absorbance at 418 nm),22.22%
